This is an account of results in patent publication US20020049223A1, “Quinoline and naphthyridine carboxylic acid antibacterials” (priority 1999, published 2002).

Common to all, as to experiment: Assay B: in vitro antibacterial activity, broth microdilution MIC (NCCLS)
Common to all, as to type: cell-based

Experiment [1] has as its system Escherichia coli JUHL. As to conditions: Table 2, Assay B, cation-adjusted Mueller Hinton broth, 35° C., 16 to 20 hr; code D = Escherichia coli JUHL; unit assumed. The protocol:
(§1) Assay B. Determination of Biological Activity In Vitro Assay of Antibacterial Activity
(§2) Representative compounds of the invention were assayed in vitro for antibacterial activity. The susceptibilities of aerobic, nonfastidious species were determined visually by broth microdilution as described by the National Committee for Clinical Laboratory Standards (NCCLS) (National Committee for Clinical Laboratory Standards. 1997. Methods for dilution antimicrobial susceptibility tests for bacteria that grow aerobically. Approved standard M7-A4. National Committee for Clinical Laboratory Standards. Wayne, Pa.). In brief, serial two-fold dilutions of test compounds were made in cation-adjusted Mueller Hinton broth at two-times the final concentration. Inocula were prepared from overnight cultures of test strains. Tests were inoculated with a suspension of bacteria in Mueller Hinton broth to achieve a final density of approximately 5×10^5 CFU/mL. Tests were incubated at 35° C. in ambient air for 16 to 20 hr. Minimum Inhibitory Concentrations (MICs) were determined as the lowest drug concentration completely inhibiting growth. Ciprofloxacin was included as a control. For testing S. pneumoniae, the cation-adjusted Mueller Hinton broth was supplemented with 3% lysed horse blood and the incubation period was extended to 20 to 24 hr. For testing H. influenzae, the cation-adjusted Mueller Hinton broth was supplemented with 5 g/L yeast extract, […] and 15 mg/L NAD and incubation was extended to 20 to 24 hr..

For experiment [2], the system named is Streptococcus pneumoniae ATCC 6303. To be noted: Table 2, Assay B, Mueller Hinton broth with 3% lysed horse blood, 20 to 24 hr; code F = Streptococcus pneumoniae ATCC 6303; unit assumed. The protocol: as §1, §2
Experiment [3] concerns Enterococcus faecalis PIU 1967. To be noted: Table 2, Assay B, cation-adjusted Mueller Hinton broth, 35° C., 16 to 20 hr; code B = Enterococcus faecalis PIU 1967; unit assumed. On the procedure: as §1, §2
Experiment [4] has as its system Staphylococcus aureus ATCC 6538P. To be noted: Table 2, Assay B, cation-adjusted Mueller Hinton broth, 35° C., 16 to 20 hr; code A = Staphylococcus aureus ATCC 6538P; unit assumed. The protocol: as §1, §2
Experiment [5] concerns Haemophilus influenzae DILL AMP R. To be noted: Table 2, Assay B, Mueller Hinton broth with yeast extract, hematin and NAD, 20 to 24 hr; code E = Haemophilus influenzae DILL AMP R; unit assumed. The protocol: as §1, §2

`COc1c(-c2cc3c(s2)CCCC3=NN2CCCC2)ccc2c(=O)c(C(=O)O)cn(C3CC3)c12` [Example 74, 1-cyclopropyl-8-methoxy-4-oxo-7-((4E/Z)-4-(1-pyrrolidinylimino)-4,5,6,7-tetrahydro-1-benzothien-2-yl)-1,4-dihydro-3-quinolinecarboxylic acid] returned an Antibacterial Activity (MIC's), D in experiment [1] of 0.5 µg/mL. This molecule also returned an Antibacterial Activity (MIC's), F in experiment [2] of 0.125 µg/mL. In experiment [3], this molecule yielded an Antibacterial Activity (MIC's), B of 0.25 µg/mL. In addition, the Antibacterial Activity (MIC's), A in experiment [4] was determined as 0.015 µg/mL. Further, the Antibacterial Activity (MIC's), E in experiment [5] amounted to 0.06 µg/mL.
In the case of `COc1c(-c2cc3c(s2)CCC(N)C3)ccc2c(=O)c(C(=O)O)cn(C3CC3)c12.Cl` (centres unmarked) [Example 76, 7-(5-amino-4,5,6,7-tetrahydro-1-benzothien-2-yl)-1-cyclopropyl-8-methoxy-4-oxo-1,4-dihydro-3-quinolinecarboxylic acid hydrochloride], in experiment [1], the Antibacterial Activity (MIC's), D was found to be 0.06 µg/mL. Further, the Antibacterial Activity (MIC's), F in experiment [2] was 0.03 µg/mL. Moreover, in experiment [3], the Antibacterial Activity (MIC's), B was found to be 0.06 µg/mL. Also, the Antibacterial Activity (MIC's), A in experiment [4] turned out to be 0.015 µg/mL. Also, the Antibacterial Activity (MIC's), E in experiment [5] worked out at 0.03 µg/mL.
In experiment [1], `CNC1CCCc2sc(-c3ccc4c(=O)c(C(=O)O)cn(C5CC5)c4c3OC)cc21.Cl` (centres unmarked) [Example 77, 1-cyclopropyl-8-methoxy-7-[4-(methylamino)-4,5,6,7-tetrahydro-1-benzothien-2-yl]-4-oxo-1,4-dihydro-3-quinolinecarboxylic acid hydrochloride] returned an Antibacterial Activity (MIC's), D of 0.25 µg/mL. This molecule returned an Antibacterial Activity (MIC's), F in experiment [2] of 0.03 µg/mL. In experiment [3], this molecule gave an Antibacterial Activity (MIC's), B of 0.125 µg/mL. The molecule also gave an Antibacterial Activity (MIC's), A in experiment [4] of 0.015 µg/mL. In addition, in experiment [5], the Antibacterial Activity (MIC's), E is 0.06 µg/mL.
As to `CCON=C1CCc2sc(-c3ccc4c(=O)c(C(=O)O)cn(C5CC5)c4c3OC)cc2C1` [Example 78, 1-cyclopropyl-7-((5E/Z)-5-(ethoxyimino)-4,5,6,7-tetrahydro-1-benzothien-2-yl)-8-methoxy-4-oxo-1,4-dihydro-3-quinolinecarboxylic acid], in experiment [1], the Antibacterial Activity (MIC's), D was determined as 4 µg/mL. For the same molecule, the Antibacterial Activity (MIC's), F in experiment [2] was 0.25 µg/mL. Moreover, the Antibacterial Activity (MIC's), B in experiment [3] came out at 1 µg/mL. Also, the Antibacterial Activity (MIC's), A in experiment [4] was found to be 0.125 µg/mL. In addition, the Antibacterial Activity (MIC's), E in experiment [5] was 2 µg/mL.
In the same order, the values of `COc1c(-c2cc3c(s2)CCC(=NOCc2ccccc2)C3)ccc2c(=O)c(C(=O)O)cn(C3CC3)c12` [Example 79, 7-((5E/Z)-5-((benzyloxy)imino)-4,5,6,7-tetrahydro-1-benzothien-2-yl)-1-cyclopropyl-8-methoxy-4-oxo-1,4-dihydro-3-quinolinecarboxylic acid] are 4 µg/mL, 0.5 µg/mL, 1 µg/mL, 0.125 µg/mL and 1 µg/mL.
In the case of `COc1c(-c2cc3c(s2)CCCC3=NNC(N)=O)ccc2c(=O)c(C(=O)O)cn(C3CC3)c12` [Example 80, 7-((4E/Z)-4-((aminocarbonyl)hydrazono)-4,5,6,7-tetrahydro-1-benzothien-2-yl)-1-cylopropyl-8-methoxy-4-oxo-1,4-dihydro-3-quinolinecarboxylic acid], the Antibacterial Activity (MIC's), D in experiment [1] is above 64 µg/mL. Further, the Antibacterial Activity (MIC's), F in experiment [2] was determined as 0.03 µg/mL. This molecule also yielded an Antibacterial Activity (MIC's), B in experiment [3] above 64 µg/mL. In addition, in experiment [4], the Antibacterial Activity (MIC's), A stood at 32 µg/mL. Further, the Antibacterial Activity (MIC's), E in experiment [5] was found to be 0.06 µg/mL.
As to `COc1c(-c2cc3c(s2)CCCC3N(C)C)ccc2c(=O)c(C(=O)O)cn(C3CC3)c12.Cl` (centres unmarked) [Example 83, 1-cyclopropyl-7-(4-(dimethylamino)-4,5,6,7-tetrahydro-1-benzothien-2-yl)-8-methoxy-4-oxo-1,4-dihydro-3-quinolinecarboxylic acid hydrochloride], the Antibacterial Activity (MIC's), D in experiment [1] was found to be 0.5 µg/mL. Further, the Antibacterial Activity (MIC's), F in experiment [2] came to 0.125 µg/mL. The Antibacterial Activity (MIC's), B in experiment [3] amounted to 0.5 µg/mL. For the same molecule, the Antibacterial Activity (MIC's), A in experiment [4] amounted to 0.125 µg/mL. Also, the Antibacterial Activity (MIC's), E in experiment [5] turned out to be 0.25 µg/mL.
Molecule `COc1c(-c2cc3c(s2)CCCC3=NNC(N)=S)ccc2c(=O)c(C(=O)O)cn(C3CC3)c12` [Example 84, 7-((4E/Z)-4-[(aminocarbothioyl)hydrazono)-4,5,6,7-tetrahydro-1-benzothien-2-yl)-1-cyclopropyl-8-methoxy-4-oxo-1,4-dihydro-3-quinolinecarboxylic acid] yielded an Antibacterial Activity (MIC's), D in experiment [1] of 1 µg/mL. Further, in experiment [2], the Antibacterial Activity (MIC's), F came out at 0.25 µg/mL. Also, the Antibacterial Activity (MIC's), B in experiment [3] came out at 0.25 µg/mL. The molecule also yielded an Antibacterial Activity (MIC's), A in experiment [4] of 0.06 µg/mL. The molecule further had an Antibacterial Activity (MIC's), E in experiment [5] of 0.125 µg/mL.
`CNC(=S)NN=C1CCCc2sc(-c3ccc4c(=O)c(C(=O)O)cn(C5CC5)c4c3OC)cc21` [Example 85] displayed an Antibacterial Activity (MIC's), D in experiment [1] of 0.5 µg/mL. For the same molecule, the Antibacterial Activity (MIC's), F in experiment [2] was found to be 0.125 µg/mL. The Antibacterial Activity (MIC's), B in experiment [3] turned out to be 0.25 µg/mL. In addition, the Antibacterial Activity (MIC's), A in experiment [4] stood at 0.03 µg/mL. Also, the Antibacterial Activity (MIC's), E in experiment [5] worked out at 0.125 µg/mL.
For the molecule `COc1c(-c2cc3c(s2)CCCC3NS(C)(=O)=O)ccc2c(=O)c(C(=O)O)cn(C3CC3)c12` (centres unmarked) [Example 88, 1-cyclopropyl-8-methoxy-7-(4-((methylsulfonyl)amino)-4,5,6,7-tetrahydro-1-benzothien-2-yl)-4-oxo-1,4-dihydro-3-quinolinecarboxylic acid], the Antibacterial Activity (MIC's), D in experiment [1] was found to be 1 µg/mL. In experiment [2], this molecule gave an Antibacterial Activity (MIC's), F of 0.125 µg/mL. In addition, in experiment [3], the Antibacterial Activity (MIC's), B turned out to be 0.25 µg/mL. In experiment [4], this molecule yielded an Antibacterial Activity (MIC's), A of 0.015 µg/mL. This molecule also showed an Antibacterial Activity (MIC's), E in experiment [5] of 0.125 µg/mL.
In turn, `COc1c(-c2cc3c(s2)CCCC3n2cccc2)ccc2c(=O)c(C(=O)O)cn(C3CC3)c12` (centres unmarked) [Example 89, 1-cyclopropyl-8-methoxy-4-oxo-7-(4-(1H-pyrrol-1-yl)-4,5,6,7-tetrahydro-1-benzothien-2-yl)-1,4-dihydro-3-quinolinecarboxylic acid] gave an Antibacterial Activity (MIC's), D in experiment [1] of 2 µg/mL. Further, in experiment [2], the Antibacterial Activity (MIC's), F amounted to 1 µg/mL. The Antibacterial Activity (MIC's), B in experiment [3] came out at 1 µg/mL. The Antibacterial Activity (MIC's), A in experiment [4] was determined as 0.125 µg/mL. Further, in experiment [5], the Antibacterial Activity (MIC's), E came out at 0.5 µg/mL.
In turn, `COc1c(-c2cc3c(s2)CCCC3=NN2CCN(C)CC2)ccc2c(=O)c(C(=O)O)cn(C3CC3)c12` [Example 92, 1-cyclopropyl-8-methoxy-7-((4E/Z)-4-((4-methyl-1-piperazinyl)imino)-4,5,6,7-tetrahydro-1-benzothien-2-yl)-4-oxo-1,4-dihydro-3-quinolinecarboxylic acid] had an Antibacterial Activity (MIC's), D in experiment [1] of 1 µg/mL. For the same molecule, the Antibacterial Activity (MIC's), F in experiment [2] amounted to 0.5 µg/mL. Besides, the Antibacterial Activity (MIC's), B in experiment [3] came out at 0.25 µg/mL. The molecule also gave an Antibacterial Activity (MIC's), A in experiment [4] of 0.03 µg/mL. Besides, the Antibacterial Activity (MIC's), E in experiment [5] came to 0.06 µg/mL.
The molecule `COc1c(-c2cc3c(s2)CCCC3NCc2cccnc2)ccc2c(=O)c(C(=O)O)cn(C3CC3)c12.Cl.Cl` (centres unmarked) [Example 94, 1-cyclopropyl-8-methoxy-4-oxo-7-(4-((3-pyridinylmethyl)amino)-4,5,6,7-tetrahydro-1-benzothien-2-yl)-1,4-dihydro-3-quinolinecarboxylic acid dihydrochloride] yielded an Antibacterial Activity (MIC's), D in experiment [1] of 1 µg/mL. The molecule further gave an Antibacterial Activity (MIC's), F in experiment [2] of 0.5 µg/mL. Further, in experiment [3], the Antibacterial Activity (MIC's), B is 1 µg/mL. Further, in experiment [4], the Antibacterial Activity (MIC's), A is 0.125 µg/mL. For the same molecule, the Antibacterial Activity (MIC's), E in experiment [5] was determined as 0.25 µg/mL.
